In patent US11825838B2, “Tricyclic carboxamides for controlling arthropods” (Bayer CropScience Aktiengesellschaft, priority 2017, dated 2023):

Legend:
Assay type in all cases: in vivo
[1] = system: Anopheles funestus strain FUMOZ-R; assay: Anopheles test (ANPHFU surface treatment); conditions: application rate 100 mg/m^2, glazed tile, exposure 30 minutes, 24 hours after contact, read-out: efficacy (mortality)
Protocol: Anopheles Test (ANPHFU Surface Treatment)
(§1) Solvent: acetone+2000 ppm rapeseed oil methyl ester (RME)
(§2) To produce a suitable active compound formulation, the active compound is dissolved in the solvent (2 mg/ml). The active compound formulation is pipetted onto a glazed tile and, after it has dried off, adult mosquitoes of the species Anopheles funestus strain FUMOZ-R (Hunt et al., Med Vet Entomol. 2005 September; 19(3):271-5) are placed onto the treated tile. The exposure time is 30 minutes.
(§3) 24 hours after contact with the treated surface, mortality in % is determined. 100% means that all mosquitoes have been killed; 0% means that none of the mosquitoes have been killed.

Ctenocephalides felis = Ctenocephalides felis oral test; conditions: application rate 100 ppm in citrated cattle blood, after 2 days
Protocol: Ctenocephalides felis—Oral Test
(§4) Solvent: dimethyl sulfoxide
To produce a suitable active ingredient formulation, 10 mg of active ingredient are mixed with 0.5 ml of dimethyl sulfoxide. Dilution with citrated cattle blood gives the desired concentration.
About 20 unfed adult cat fleas (Ctenocephalides felis) are placed into a chamber which is closed at the top and bottom with gauze. A metal cylinder whose bottom end is closed with parafilm is placed onto the chamber. The cylinder contains the blood/active ingredient formulation, which can be imbibed by the fleas through the parafilm membrane.
After 2 days, the rate of extermination in % is determined. 100% means that all of the fleas have been killed; 0% means that none of the fleas have been killed.

[2] = system: Anopheles gambiae strain RSPH (homozygot kdr); assay: Anopheles test (ANPHGB surface treatment); conditions: application rate 100 mg/m^2, glazed tile, exposure 30 minutes, 24 hours after contact, read-out: efficacy (mortality)
Protocol: Anopheles Test (ANPHGB Surface Treatment)
as §1
as §2, with “gambiae” for “funestus”, “RSPH (homozygot kdr)” for “FUMOZ-R (Hunt et al., Med Vet Entomol. 2005 September; 19(3):271-5)”
as §3

Tetranychus urticae = Tetranychus urticae spray test, OP-resistant (TETRUR); conditions: for efficacy: spray, after 6 days
Protocol: Tetranychus urticae—Spray Test, OP-Resistant
(§5) To produce a suitable active ingredient formulation, 1 part by weight of active ingredient is dissolved with the specified parts by weight of solvent and made up to the desired concentration with water containing an emulsifier concentration of 1000 ppm. To produce further test concentrations, the formulation is diluted with emulsifier-containing water.
Discs of bean leaves (Phaseolus vulgaris) infested with all stages of the greenhouse red spider mite (Tetranychus urticae) are sprayed with an active compound preparation of the desired concentration.
After 6 days, the efficacy in % is determined. 100% means that all the spider mites have been killed; 0% means that no spider mites have been killed.
Tetranychus urticae—Spray Test; OP-Resistant (TETRUR)
as §5, with “compound” for “ingredient”
Discs of bean leaves (Phaseolus vulgaris) infested with all stages of the greenhouse red spider mite (Tetranychus urticae) are sprayed with an active compound formulation of the desired concentration.
After the desired time, the efficacy in % is determined. 100% means that all the spider mites have been killed; 0% means that no spider mites have been killed.

[3] = system: Aedes aegypti strain MONHEIM; assay: Aedes test (AEDSAE surface treatment); conditions: application rate 100 mg/m^2, glazed tile, exposure 30 minutes, 24 hours after contact, read-out: efficacy (mortality)
Protocol: Aedes Test (AEDSAE Surface Treatment)
as §1
as §2, with “Aedes aegypti” for “Anopheles funestus”, “MONHEIM” for “FUMOZ-R (Hunt et al., Med Vet Entomol. 2005 September; 19(3):271-5)”
as §3

Boophilus microplus = Boophilus microplus injection test; conditions: application rate 20 μg/animal, assessed after 7 days by laying of fertile eggs
Protocol: Boophilus microplus—Injection Test
as §4
To produce a suitable active compound preparation, 10 mg of active compound are mixed with 0.5 ml of solvent and the concentrate is diluted to the desired concentration with solvent.
1 μl of the active ingredient solution is injected into the abdomen of 5 engorged adult female cattle ticks (Boophilus microplus). The animals are transferred into dishes and kept in a climate-controlled room.
Efficacy is assessed after 7 days by laying of fertile eggs. Eggs which are not visibly fertile are stored in a climate-controlled cabinet until the larvae hatch after about 42 days. An efficacy of 100% means that none of the ticks has laid any fertile eggs; 0% means that all the eggs are fertile.

Myzus persicae = Myzus persicae oral test; conditions: application rate 4 ppm, after 5 days
Protocol: To produce a suitable active compound preparation, 1 part by weight of active compound is dissolved with the specified amounts by weight of solvent and made up to the desired concentration with water.
50 ul of the active compound preparation are transferred to microtiter plates and made up to a final volume of 200 μl with 150 μl of IPL41 insect medium (33%+15% sugar). Then the plates are sealed with parafilm through which a mixed population of the green peach aphid (Myzus persicae), which is located in a second microtiter plate, can pierce and absorb the solution.
After 5 days, the efficacy in % is determined. 100% means that all the aphids have been killed; 0% means that no aphids have been killed.

SMILES	mortality at 100 mg/m2 [1] [%]	efficacy (rate of extermination) (Ctenocephalides felis) [%]	mortality at 100 mg/m2 [2] [%]	Emax at 100 g/ha (Tetranychus urticae; Tetranychus urticae, 144 h, TETRUR, 100 g ai/ha, 6 dat, read-out: % efficacy dat) [%]	efficacy (Tetranychus urticae; application rate 20 g/ha) [%]	mortality at 100 mg/m2 [3] [%]	efficacy (Boophilus microplus) [%]	efficacy (Myzus persicae) [%]	efficacy (Tetranychus urticae; application rate 100 g/ha) [%]
O=C(NC1CC1)c1cc(-c2cnn(-c3c(Cl)cc(C(F)(C(F)(F)F)C(F)(F)F)cc3Cl)c2)sc1Br [I-T1-1]	80 to 100	100	80 to 100	70	100	80 to 100	100		
Cc1sc(-c2cnn(-c3c(Cl)cc(C(F)(C(F)(F)F)C(F)(F)F)cc3Cl)c2)cc1C(=O)NC1CC1 [I-T1-11]		100			100		100	90	100
